{"source": "PubChem BioAssay AID2060504", "about": "(Molecular Pharmacology Branch, DTP, NCI, 2025)", "tested_on": "636577-100-R-J1-PDC complex spheroid viability", "test": "Anticancer human tumor 636577-100-R-J1-PDC patient-derived endometrial adenocarcinoma cell line growth inhibition [GQUAD]", "details": "for IC50: curve of first compound; for viability, T/C: stronger effect = lower value", "method_in_brief": "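Viability of tumor cells grown as complex spheroids with endothelial and stromal cells, exposed to drug combinations. Top concentration at or near clinical Cmax (else 10 microM), diluted in half-log increments.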", "key": {"[1]": {"details": "second compound 0.0316 µM, first compound 0.0316 µM"}, "[2]": {"details": "second compound 0.0316 µM, first compound 0.1 µM"}, "[3]": {"details": "second compound 0.0316 µM, first compound 0.316 µM"}, "[4]": {"details": "second compound 0.0316 µM, first compound 1 µM"}, "[5]": {"details": "second compound 0.0316 µM, first compound 3.16 µM"}, "[6]": {"details": "second compound 0.0316 µM, first compound 10 µM"}, "[7]": {"details": "second compound 0.1 µM, first compound 0.0316 µM"}, "[8]": {"details": "second compound 0.1 µM, first compound 0.1 µM"}, "[9]": {"details": "second compound 0.1 µM, first compound 0.316 µM"}, "[10]": {"details": "second compound 0.1 µM, first compound 1 µM"}, "[11]": {"details": "second compound 0.1 µM, first compound 3.16 µM"}, "[12]": {"details": "second compound 0.1 µM, first compound 10 µM"}, "[13]": {"details": "second compound 0.316 µM, first compound 0.0316 µM"}, "[14]": {"details": "second compound 0.316 µM, first compound 0.1 µM"}, "[15]": {"details": "second compound 0.316 µM, first compound 0.316 µM"}, "[16]": {"details": "second compound 0.316 µM, first compound 1 µM"}, "[17]": {"details": "second compound 0.316 µM, first compound 3.16 µM"}, "[18]": {"details": "second compound 0.316 µM, first compound 10 µM"}, "[19]": {"details": "second compound 1 µM, first compound 0.0316 µM"}, "[20]": {"details": "second compound 1 µM, first compound 0.1 µM"}, "[21]": {"details": "second compound 1 µM, first compound 0.316 µM"}, "[22]": {"details": "second compound 1 µM, first compound 1 µM"}, "[23]": {"details": "second compound 1 µM, first compound 3.16 µM"}, "[24]": {"details": "second compound 1 µM, first compound 10 µM"}, "[25]": {"details": "second compound 3.16 µM, first compound 0.0316 µM"}, "[26]": {"details": "second compound 3.16 µM, first compound 0.1 µM"}, "[27]": {"details": "second compound 3.16 µM, first compound 0.316 µM"}, "[28]": {"details": "second compound 3.16 µM, first compound 1 µM"}, "[29]": {"details": "second compound 3.16 µM, first compound 3.16 µM"}, "[30]": {"details": "second compound 3.16 µM, first compound 10 µM"}, "[31]": {"details": "second compound 10 µM, first compound 0.0316 µM"}, "[32]": {"details": "second compound 10 µM, first compound 0.1 µM"}, "[33]": {"details": "second compound 10 µM, first compound 0.316 µM"}, "[34]": {"details": "second compound 10 µM, first compound 1 µM"}, "[35]": {"details": "second compound 10 µM, first compound 3.16 µM"}, "[36]": {"details": "second compound 10 µM, first compound 10 µM"}}, "data": [{"compound": "C#Cc1c(F)ccc2cc(O)cc(-c3ncc4c(N5CC6CCC(C5)N6)nc(OCC56CCCN5CC(F)C6)nc4c3F)c12", "note": "(centres undefined) + Cc1cnc(CNC(=O)c2c(=O)c3ccc(N4CCCN(C)CC4)nc3n3c2sc2ccccc23)cn1;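 also: viability read after seven days of drug exposure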;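 as to viability, T/C: luminescence signal used as a proxy for viable cells; 100% = DMSO vehicle control wells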", "values": [{"measurement": "IC50", "setting": "second compound 0.0316 µM", "value": "< 31.6", "unit": "nM"}, {"measurement": "IC50", "setting": "second compound 0.1 µM", "value": "< 31.6", "unit": "nM"}, {"measurement": "IC50", "setting": "second compound 0.316 µM", "value": "< 31.6", "unit": "nM"}, {"measurement": "IC50", "setting": "second compound 1 µM", "value": "< 31.6", "unit": "nM"}, {"measurement": "IC50", "setting": "second compound 3.16 µM", "value": "< 31.6", "unit": "nM"}, {"measurement": "IC50", "setting": "second compound 10 µM", "value": "< 31.6", "unit": "nM"}, {"measurement": "viability, T/C", "setting": "[1]", "value": 48.3, "unit": "%"}, {"measurement": "viability, T/C", "setting": "[2]", "value": 45.1, "unit": "%"}, {"measurement": "viability, T/C", "setting": "[3]", "value": 46, "unit": "%"}, {"measurement": "viability, T/C", "setting": "[4]", "value": 30.9, "unit": "%"}, {"measurement": "viability, T/C", "setting": "[5]", "value": 38, "unit": "%"}, {"measurement": "viability, T/C", "setting": "[6]", "value": 28.6, "unit": "%"}, {"measurement": "viability, T/C", "setting": "[7]", "value": 31.6, "unit": "%"}, {"measurement": "viability, T/C", "setting": "[8]", "value": 26.9, "unit": "%"}, {"measurement": "viability, T/C", "setting": "[9]", "value": 25.8, "unit": "%"}, {"measurement": "viability, T/C", "setting": "[10]", "value": 21.6, "unit": "%"}, {"measurement": "viability, T/C", "setting": "[11]", "value": 22.5, "unit": "%"}, {"measurement": "viability, T/C", "setting": "[12]", "value": 20, "unit": "%"}, {"measurement": "viability, T/C", "setting": "[13]", "value": 22.2, "unit": "%"}, {"measurement": "viability, T/C", "setting": "[14]", "value": 22.6, "unit": "%"}, {"measurement": "viability, T/C", "setting": "[15]", "value": 25, "unit": "%"}, {"measurement": "viability, T/C", "setting": "[16]", "value": 18.9, "unit": "%"}, {"measurement": "viability, T/C", "setting": "[17]", "value": 19.8, "unit": "%"}, {"measurement": "viability, T/C", "setting": "[18]", "value": 16, "unit": "%"}, {"measurement": "viability, T/C", "setting": "[19]", "value": 18.4, "unit": "%"}, {"measurement": "viability, T/C", "setting": "[20]", "value": 19, "unit": "%"}, {"measurement": "viability, T/C", "setting": "[21]", "value": 21, "unit": "%"}, {"measurement": "viability, T/C", "setting": "[22]", "value": 18.1, "unit": "%"}, {"measurement": "viability, T/C", "setting": "[23]", "value": 15.7, "unit": "%"}, {"measurement": "viability, T/C", "setting": "[24]", "value": 13.3, "unit": "%"}, {"measurement": "viability, T/C", "setting": "[25]", "value": 17.1, "unit": "%"}, {"measurement": "viability, T/C", "setting": "[26]", "value": 20.5, "unit": "%"}, {"measurement": "viability, T/C", "setting": "[27]", "value": 19.5, "unit": "%"}, {"measurement": "viability, T/C", "setting": "[28]", "value": 17.4, "unit": "%"}, {"measurement": "viability, T/C", "setting": "[29]", "value": 17, "unit": "%"}, {"measurement": "viability, T/C", "setting": "[30]", "value": 16.5, "unit": "%"}, {"measurement": "viability, T/C", "setting": "[31]", "value": 19.3, "unit": "%"}, {"measurement": "viability, T/C", "setting": "[32]", "value": 16.1, "unit": "%"}, {"measurement": "viability, T/C", "setting": "[33]", "value": 20.3, "unit": "%"}, {"measurement": "viability, T/C", "setting": "[34]", "value": 17.5, "unit": "%"}, {"measurement": "viability, T/C", "setting": "[35]", "value": 19.7, "unit": "%"}, {"measurement": "viability, T/C", "setting": "[36]", "value": 16.2, "unit": "%"}]}, {"compound": "C=CC(=O)N1CCN(c2nc(=O)n(-c3c(C)ccnc3C(C)C)c3nc(-c4c(O)cccc4F)c(F)cc23)C(C)C1", "note": "(centres undefined) + Cc1cnc(CNC(=O)c2c(=O)c3ccc(N4CCCN(C)CC4)nc3n3c2sc2ccccc23)cn1", "values": [{"measurement": "IC50", "setting": "second compound 0.0316 µM", "value": "< 31.6", "unit": "nM"}, {"measurement": "IC50", "setting": "second compound 0.1 µM", "value": "< 31.6", "unit": "nM"}, {"measurement": "IC50", "setting": "second compound 0.316 µM", "value": "< 31.6", "unit": "nM"}, {"measurement": "IC50", "setting": "second compound 1 µM", "value": "< 31.6", "unit": "nM"}, {"measurement": "IC50", "setting": "second compound 3.16 µM", "value": "< 31.6", "unit": "nM"}, {"measurement": "IC50", "setting": "second compound 10 µM", "value": "< 31.6", "unit": "nM"}, {"measurement": "viability, T/C", "setting": "[1]", "value": 41.6, "unit": "%"}, {"measurement": "viability, T/C", "setting": "[2]", "value": 45.5, "unit": "%"}, {"measurement": "viability, T/C", "setting": "[3]", "value": 43.1, "unit": "%"}, {"measurement": "viability, T/C", "setting": "[4]", "value": 45.7, "unit": "%"}, {"measurement": "viability, T/C", "setting": "[5]", "value": 51, "unit": "%"}, {"measurement": "viability, T/C", "setting": "[6]", "value": 43, "unit": "%"}, {"measurement": "viability, T/C", "setting": "[7]", "value": 28.8, "unit": "%"}, {"measurement": "viability, T/C", "setting": "[8]", "value": 30.6, "unit": "%"}, {"measurement": "viability, T/C", "setting": "[9]", "value": 31.7, "unit": "%"}, {"measurement": "viability, T/C", "setting": "[10]", "value": 33.1, "unit": "%"}, {"measurement": "viability, T/C", "setting": "[11]", "value": 35.1, "unit": "%"}, {"measurement": "viability, T/C", "setting": "[12]", "value": 28.1, "unit": "%"}, {"measurement": "viability, T/C", "setting": "[13]", "value": 24.7, "unit": "%"}, {"measurement": "viability, T/C", "setting": "[14]", "value": 25.1, "unit": "%"}, {"measurement": "viability, T/C", "setting": "[15]", "value": 25.2, "unit": "%"}, {"measurement": "viability, T/C", "setting": "[16]", "value": 29.9, "unit": "%"}, {"measurement": "viability, T/C", "setting": "[17]", "value": 31.1, "unit": "%"}, {"measurement": "viability, T/C", "setting": "[18]", "value": 28, "unit": "%"}, {"measurement": "viability, T/C", "setting": "[19]", "value": 24.6, "unit": "%"}, {"measurement": "viability, T/C", "setting": "[20]", "value": 22.8, "unit": "%"}, {"measurement": "viability, T/C", "setting": "[21]", "value": 24.1, "unit": "%"}, {"measurement": "viability, T/C", "setting": "[22]", "value": 25.4, "unit": "%"}, {"measurement": "viability, T/C", "setting": "[23]", "value": 21.7, "unit": "%"}, {"measurement": "viability, T/C", "setting": "[24]", "value": 25.7, "unit": "%"}, {"measurement": "viability, T/C", "setting": "[25]", "value": 24, "unit": "%"}, {"measurement": "viability, T/C", "setting": "[26]", "value": 21.5, "unit": "%"}, {"measurement": "viability, T/C", "setting": "[27]", "value": 25.9, "unit": "%"}, {"measurement": "viability, T/C", "setting": "[28]", "value": 27.9, "unit": "%"}, {"measurement": "viability, T/C", "setting": "[29]", "value": 29.5, "unit": "%"}, {"measurement": "viability, T/C", "setting": "[30]", "value": 26.8, "unit": "%"}, {"measurement": "viability, T/C", "setting": "[31]", "value": 21.5, "unit": "%"}, {"measurement": "viability, T/C", "setting": "[32]", "value": 22.9, "unit": "%"}, {"measurement": "viability, T/C", "setting": "[33]", "value": 23.9, "unit": "%"}, {"measurement": "viability, T/C", "setting": "[34]", "value": 22.1, "unit": "%"}, {"measurement": "viability, T/C", "setting": "[35]", "value": 26.7, "unit": "%"}, {"measurement": "viability, T/C", "setting": "[36]", "value": 25.2, "unit": "%"}]}]}
